Here are results for three compounds from ChEMBL document CHEMBL2074129 (J Clin Invest, 1995).

Series [1] addresses ATP-dependent translocase ABCB1 (Homo sapiens, UniProt P08183). The experiment in a line: TP_TRANSPORTER: transepithelial transport (basal to apical) in MDR1-expressing LLC-PK1 cells. The following applies: pig. The format is functional, cell-based.
Series [2] deals with ATP-dependent translocase ABCB1 (Mus musculus, UniProt P21447). The experiment in a line: TP_TRANSPORTER: transepithelial transport (basal to apical) in mdr1a-expressing LLC-PK1 cell. The format is functional, cell-based. The following applies: pig.
ATP-dependent translocase ABCB1 (Mus musculus, UniProt P21447), sequence (P21447 whole entry): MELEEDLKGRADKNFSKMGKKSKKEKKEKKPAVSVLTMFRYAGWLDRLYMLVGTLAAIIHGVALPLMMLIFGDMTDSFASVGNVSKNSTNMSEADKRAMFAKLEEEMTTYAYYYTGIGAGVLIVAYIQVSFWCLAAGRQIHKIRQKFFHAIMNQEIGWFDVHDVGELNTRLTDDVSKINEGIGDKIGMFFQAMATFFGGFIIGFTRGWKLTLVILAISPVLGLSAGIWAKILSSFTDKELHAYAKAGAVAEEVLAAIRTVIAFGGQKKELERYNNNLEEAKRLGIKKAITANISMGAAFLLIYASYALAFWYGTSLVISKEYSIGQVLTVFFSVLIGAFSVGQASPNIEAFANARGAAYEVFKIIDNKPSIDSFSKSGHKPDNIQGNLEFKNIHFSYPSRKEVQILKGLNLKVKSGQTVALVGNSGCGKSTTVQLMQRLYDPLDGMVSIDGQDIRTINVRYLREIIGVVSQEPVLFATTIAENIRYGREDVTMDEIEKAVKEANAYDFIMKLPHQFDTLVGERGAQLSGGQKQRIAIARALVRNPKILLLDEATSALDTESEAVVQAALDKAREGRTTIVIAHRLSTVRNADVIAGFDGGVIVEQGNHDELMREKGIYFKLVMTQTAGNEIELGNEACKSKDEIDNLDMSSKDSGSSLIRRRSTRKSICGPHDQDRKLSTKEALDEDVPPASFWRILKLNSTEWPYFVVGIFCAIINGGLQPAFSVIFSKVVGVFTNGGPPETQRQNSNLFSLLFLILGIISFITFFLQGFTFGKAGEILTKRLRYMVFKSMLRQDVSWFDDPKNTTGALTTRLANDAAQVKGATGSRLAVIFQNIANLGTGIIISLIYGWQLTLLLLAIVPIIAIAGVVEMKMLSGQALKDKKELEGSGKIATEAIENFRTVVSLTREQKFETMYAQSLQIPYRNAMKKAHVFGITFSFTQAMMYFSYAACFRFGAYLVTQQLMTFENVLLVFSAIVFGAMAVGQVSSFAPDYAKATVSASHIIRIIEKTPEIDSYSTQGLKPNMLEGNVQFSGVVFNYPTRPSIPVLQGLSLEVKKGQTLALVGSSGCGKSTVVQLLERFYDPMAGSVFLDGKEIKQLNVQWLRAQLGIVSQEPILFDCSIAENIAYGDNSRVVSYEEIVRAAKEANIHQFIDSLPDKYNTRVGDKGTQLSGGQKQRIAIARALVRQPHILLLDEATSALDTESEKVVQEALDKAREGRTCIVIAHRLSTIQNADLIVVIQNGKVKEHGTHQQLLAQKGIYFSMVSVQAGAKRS

ATP-dependent translocase ABCB1 (Homo sapiens, UniProt P08183), sequence (P08183 whole entry): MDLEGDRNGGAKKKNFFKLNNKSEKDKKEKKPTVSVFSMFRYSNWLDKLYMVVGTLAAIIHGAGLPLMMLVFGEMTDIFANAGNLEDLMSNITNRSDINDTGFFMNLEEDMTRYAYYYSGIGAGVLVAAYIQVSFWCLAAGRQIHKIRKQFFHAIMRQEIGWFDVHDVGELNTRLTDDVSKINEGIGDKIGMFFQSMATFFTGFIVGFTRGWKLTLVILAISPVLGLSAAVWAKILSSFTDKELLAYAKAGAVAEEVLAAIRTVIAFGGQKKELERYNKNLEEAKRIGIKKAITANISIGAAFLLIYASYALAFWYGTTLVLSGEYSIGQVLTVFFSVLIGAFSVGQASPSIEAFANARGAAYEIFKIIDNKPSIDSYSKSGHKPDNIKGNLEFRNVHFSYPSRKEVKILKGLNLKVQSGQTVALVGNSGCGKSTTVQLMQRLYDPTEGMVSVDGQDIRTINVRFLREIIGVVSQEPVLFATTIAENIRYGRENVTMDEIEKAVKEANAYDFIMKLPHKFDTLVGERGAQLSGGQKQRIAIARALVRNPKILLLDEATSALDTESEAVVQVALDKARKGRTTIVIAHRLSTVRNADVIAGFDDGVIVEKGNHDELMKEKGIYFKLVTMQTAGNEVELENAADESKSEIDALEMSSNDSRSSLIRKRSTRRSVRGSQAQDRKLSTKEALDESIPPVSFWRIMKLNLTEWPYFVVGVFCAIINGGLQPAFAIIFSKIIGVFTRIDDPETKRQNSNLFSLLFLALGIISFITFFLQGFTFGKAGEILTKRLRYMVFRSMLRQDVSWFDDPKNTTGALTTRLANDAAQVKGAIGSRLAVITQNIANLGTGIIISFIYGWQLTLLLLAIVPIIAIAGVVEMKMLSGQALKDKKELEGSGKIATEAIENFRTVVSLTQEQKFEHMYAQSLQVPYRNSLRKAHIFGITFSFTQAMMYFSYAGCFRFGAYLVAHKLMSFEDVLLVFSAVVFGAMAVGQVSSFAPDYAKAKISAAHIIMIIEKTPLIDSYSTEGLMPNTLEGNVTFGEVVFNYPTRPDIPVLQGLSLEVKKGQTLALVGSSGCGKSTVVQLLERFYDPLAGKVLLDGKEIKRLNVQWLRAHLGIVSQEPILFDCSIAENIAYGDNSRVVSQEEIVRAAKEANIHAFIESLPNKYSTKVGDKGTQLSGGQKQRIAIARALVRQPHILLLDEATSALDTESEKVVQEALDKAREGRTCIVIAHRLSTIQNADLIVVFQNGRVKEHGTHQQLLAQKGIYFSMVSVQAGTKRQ

With IVERMECTIN, the Activity result in series [1] and in series [2] was “substrate [+]” throughout.
Take `C[C@@H]1C[C@H]2[C@@H]3CCC4=CC(=O)C=C[C@]4(C)[C@@]3(F)[C@@H](O)C[C@]2(C)[C@@]1(O)C(=O)CO` [DEXAMETHASONE]: the Activity entry in series [1] and in series [2] was “substrate [+]” in each case.
Take `CN1CC[C@]23c4c5ccc(O)c4O[C@H]2[C@@H](O)C=C[C@H]3[C@H]1C5` [MORPHINE]: in series [2], the Activity result was “substrate [+]”.
